From US20230226095A1, “METHODS AND COMPOSITIONS FOR TREATING C[…]” (The Children's Medical Center Corporation, priority 2020, published 2023)

B1: recombinant amphiregulin: recombinant epidermal growth factor-like cytokine amphiregulin, necessary for tissue repair (protein, UniProt P15514 101-187, looked up)
Amphiregulin: SVRVEQVVKPPQNKTESENTSDKPKRKKKGGKNGKNRRNRKKKNPCNAEFQNFCIHGECKYIEHLEAVTCKCQQEYFGERCGEKSMK

Key:
Treg cells = test: In vitro induction of Notch4 expression in Treg cells; assay type: cell-based; conditions: Treg cells from PBS or Poly I:C-treated mice
Protocol: To further elucidate the mechanisms of Notch4 induction in Treg cells, in vitro studies were conducted to examine the capacity of Poly I:C and cytokine treatment to upregulate Notch4 expression in Treg cells isolated from PBS or Poly I:C-treated mice.

lung tissue Treg cells = test: Daily intra-tracheal instillation of Poly I:C, flow cytometry of lung T cells; assay type: in vivo, mice
From the text: To investigate the mechanism by which Notch4 licenses lung tissue inflammation in viral respiratory infections, its role in Poly I:C-induced airway inflammation was first examined. Poly I:C stimulates Toll like receptor 3 and the downstream viral RNA sensors cytoplasmic retinoic acid-inducible gene I (RIG-I) and melanoma differentiation-associated protein 5 (MDA5), thus providing a proxy model of RNA viral infections (Broggi et al., 2020; Iwasaki and Pillai, 2014; Kato et al., 2006). […] Treg cell specific deletion of Notch4 using a Foxp3-driven Cre recombinase (Foxp3YFPCre) and floxed Notch4 allele (Foxp3YFPCreNotch4Δ/Δ) protected the mice from the weight loss induced by the Poly I:C treatment (data not shown).
(§1) Polyinosinic-polycytidylic acid (Poly I:C) mouse model. Mice were treated intratracheally with 2.5 mg/kg of Poly I:C HMW (InvivoGen) daily for six consecutive days. The weight of the mice was recorded daily upon application of the Poly I:C. The mice were subjected to airway hyperresponsiveness at day 7, then euthanized and analyzed. For blockading amphiregulin, mice were treated with a peptide spanning amino acids 91140 of the middle region of the human amphiregulin preproprotein (amphiregulin91-140 peptide; Mybiosource). The peptide was given intratracheally at 10 µg/ml in PBS in a final volume of 100 µl. For the amphiregulin neutralizing antibody tests, the mice were given intraperitoneally 20 µg of goat anti-mouse amphiregulin mAb (clone AF989; R&D systems) or isotype control mAb (clone AB-108-C; R&D systems) daily for the duration of the experiment.

[1] = test system: Foxp3YFPCre mice treated with Poly I:C; test: Recombinant amphiregulin therapy in Poly I:C-induced lung inflammation; assay type: in vivo; conditions: data not shown
From the text: To establish the role of amphiregulin in the protection against lung inflammation induced by Notch4 depletion, the capacity of recombinant amphiregulin therapy to rescue Poly I:C-induced lung inflammation was examined. […] Recombinant amphiregulin also reversed the skewing of lung macrophages towards an M1 phenotype upon in vitro treatment with Poly I:C (FIG. 7H), mirroring the same effect of Foxp3YFPCreNotch4Δ/Δ Treg cells (data not shown).
as §1

lung macrophages = test: Lung macrophage M1/M2 polarization in vitro upon Poly I:C treatment; assay type: cell-based, mice; conditions: in vitro treatment with Poly I:C
Protocol: Regulatory T-cell co-cultures with macrophages. Macrophages cells are isolated from lungs of Poly I:C-treated mice. Macrophages were isolated based on CD45^+ F4/80^+ MHCII^+. Macrophages were then co-cultured (at 1:1 concentration) with lungs Treg cells from Foxp3^YFPCre or Foxp3^YFPCreNotch4^Δ/Δ mice Poly I:C-treated mice. Cells were treated with Poly I:C at a concentration of 10 ug/ml for three days. After 72 h, M1 (F4/80^+ MHCII^+ CD68^+ CD80^+CD86^+) and M2 (F4/80^+ MHCII^+ CD163^+ CD206^+) polarization was measured by flow cytometric analysis.
M1 and M2 gating strategy. M1 was defined as follows: CD45^+CD4^-F4/80^+MHCII^+ CD68^+ CD80^+CD86^+ while M2 macrophages were defined as follows: CD45^+CD4^-F4/80^+ MHCII+CD163+CD206+.

[2] = daily intra-tracheal for 6 consecutive days

Row | Molecule | Notch4 expression in lung Treg cells (Treg cells) | Notch4 expression in splenic Treg cells (Treg cells) | expression of Hippo pathway effector Yap in lung tissue Treg cells (lung tissue Treg cells; Poly I:C treatment) | expression of Wnt pathway effector beta-Catenin in lung tissue Treg cells (lung tissue Treg cells; Poly I:C treatment) | expression of Notch4 on CD4+ Teff cells (lung tissue Treg cells; [2]) | frequencies and absolute numbers of Notch4 expressing lung tissue Treg cells and MFI of Notch4 (lung tissue Treg cells; [2]) | epithelial barrier function ([1]; Poly I:C treatment) | inflammatory responses induced by Poly I:C treatment [1] | weight loss induced by Poly I:C treatment [1] | skewing of lung macrophages towards an M1 phenotype (lung macrophages)
1 | Polyinosinic-polycytidylic acid [Poly I:C] | increased Notch4 expression | not splenic | potently induced | unchanged | minimal expression | sharp progressive increase |  |  |  | 
2 | B1 |  |  |  |  |  |  | restoration of an intact epithelial barrier function | largely abrogated | largely abrogated | reversed
